The target in assay [1] is T1, MAP kinase-activated protein kinase 5 (Homo sapiens, UniProt Q8IW41).
T1 sequence (Q8IW41 whole entry): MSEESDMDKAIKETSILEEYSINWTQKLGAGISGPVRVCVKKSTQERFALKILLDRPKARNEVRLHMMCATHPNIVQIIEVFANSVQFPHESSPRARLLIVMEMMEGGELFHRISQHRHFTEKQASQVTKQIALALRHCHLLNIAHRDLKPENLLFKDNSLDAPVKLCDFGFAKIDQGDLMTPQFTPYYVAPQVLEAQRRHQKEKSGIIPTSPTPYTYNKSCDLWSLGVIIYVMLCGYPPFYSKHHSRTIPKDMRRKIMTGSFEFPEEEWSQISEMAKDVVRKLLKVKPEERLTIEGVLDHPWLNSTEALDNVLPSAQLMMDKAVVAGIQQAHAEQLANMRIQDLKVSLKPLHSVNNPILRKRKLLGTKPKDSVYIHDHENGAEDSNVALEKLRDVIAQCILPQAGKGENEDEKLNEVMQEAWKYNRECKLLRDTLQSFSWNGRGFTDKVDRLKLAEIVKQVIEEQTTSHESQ
Description: Inhibition of MAPKAPK5.

The target in assay [2] is T1, MAP kinase-activated protein kinase 5. Description: Inhibition of MAPKAPK5 in synovial fibroblast from rheumatoid arthritis patient assessed as inhibition of TNF-alpha-induced MMP1 expression incubated for 30 mins prior to TNFalpha-challenge measured after 48 hrs by ELISA. For orientation: An ELISA detects its analyte on a solid surface through an enzyme-linked reagent.

The values below come from ChEMBL document CHEMBL1955844, “Discovery of a series of imidazopyrazine small molecule inhibitors of the kinase MAPKAPK5, that show activity using in vitro and in vivo models of rheumatoid arthritis” (Bioorg Med Chem Lett, 2012).

The IC50 is the concentration needed to halve the response being measured.

Some results are limits rather than exact numbers.

With `CN(c1ccc(N2CCOCC2)cc1)c1ncc(-c2cn[nH]c2)n2ccnc12`, in assay [1], the IC50 was greater than 10 µM.
Consider `c1cn2c(-c3c[nH]nn3)cnc(Nc3ccc(N4CCOCC4)cc3)c2n1`, for which the IC50 in assay [2] is greater than 10 µM; in assay [1], 1.49 µM.
On to `NS(=O)(=O)c1ccc(-c2cnc(Nc3ccc(N4CCOCC4)cc3)c3nccn23)cc1`, for which the half-inhibitory concentration (IC50) in assay [2] and in assay [1] was greater than 10 µM in each case.
With `NC(=O)c1ccc(-c2cnc(Nc3ccc(N4CCOCC4)cc3)c3nccn23)cc1F`, the IC50 in assay [2] was greater than 10 µM; in assay [1] it was 2.39 µM.
Regarding `CCOc1cc(-c2cnc(Nc3ccc(N4CCOCC4)cc3)c3nccn23)ccn1`, in assay [1], the IC50 was greater than 10 µM.
For the compound `CN(C)c1cc(-c2cnc(Nc3ccc(N4CCOCC4)cc3)c3nccn23)ccn1`, the IC50 in assay [1] was greater than 10 µM.
As to `NC(=O)c1cnc(-c2cnc(Nc3ccc(N4CCOCC4)cc3)c3nccn23)s1`, the IC50 was greater than 10 µM in assay [2] and 2.82 µM in assay [1].
Take `NC(=O)c1ncc(-c2cnc(Nc3ccc(N4CCOCC4)cc3)c3nccn23)s1`: the IC50 in assay [2] is greater than 10 µM; in assay [1], 3.2 µM.
The compound `c1cn2c(-c3ccc4[nH]ccc4c3)cnc(Nc3ccc(N4CCOCC4)cc3)c2n1` had an IC50 in assay [1] greater than 10 µM.
Compound `CN1CCN(c2ccc(Nc3ncc(-c4cc[nH]c(=O)c4)n4ncnc34)cc2)CC1` came in with an IC50 in assay [1] of 3.73 µM.
